Test system: T1, LiP (lignin peroxidase) of T. versicolor IBL-04
T1 construct: native secreted enzyme purified from solid-state culture on corncobs (ammonium sulfate, Sephadex G-100, DEAE-cellulose); monomer, 30 kDa on SDS and native PAGE
Assay: veratryl alcohol oxidation to veratraldehyde at […] nm, Lineweaver-Burk
Type: biochemical, Trametes versicolor
Conditions: free enzyme; H2O2 co-substrate; incubated 15 min at 25°C in citrate phosphate pH 6.0 before assay; 100-1000 μM substrate

COc1ccc(CO)cc1OC [veratryl alcohol]
Km: 70 µM
